Patent publication US8067424B2, “Selective inhibitors for cyclin-dependent kinases” (Emory University, priority 2007, dated 2011)
Read-outs that look alike come from different tables or passages of the source.

Columns and labels:
Assay type in all cases: biochemical
[1] = target: RSK1 (Homo sapiens, UniProt Q15418); experiment: Kinase screen: MAPKAP-K1a assay
Method: (§1) Generally, the same procedure was used for all assays. Since the total assay volume was 25.5 microliters, 0.5 microliters of inhibitors at 51× assay concentration were added to the plates before any other addition.
(§2) The basic procedure was to add 0.5 microliters inhibitor/control in DMSO to plate. Fifteen microliters of enzyme/substrate/buffer mix were added and incubated for 5 min. Ten microliters MgATP at the relevant concentration were added and incubated for 30 min. The assay was stopped by adding 5 microliters of 3% orthophosphoric acid. The assay was transferred to a p81 filter plate and read in a scintillation counter of 30 sec/well. Note that this assay procedure was not followed for MKK1, which instead involved a two-step assay, and PKC alpha, which required the addition of lipid vesicles.
MAPKAP-K1a assay: MAPKAP-K1a (5-20 mU diluted in 20 mM MOPS pH 7.5, 1 mM EDTA, 0.01% Brij35, 5% glycerol, 0.1% b-mercaptoethanol, 1 mg/ml BSA) was assayed against […] (SEQ ID NO: 3) in a final volume of 25.5 μl containing 50 mM Na-b-glycerophosphate pH 7.5, 0.5 mM EDTA, 30 μM substrate peptide, 10 mM magnesium acetate and 0.05 mM [33P-g-ATP] (50-1000 cpm/pmole) and incubated for 40 min at room temperature. Assays were stopped by addition of 5 μl of 0.5 M (3%) orthophosphoric acid and then harvested onto P81 Unifilter plates with a wash buffer of 50 mM orthophosphoric acid.

[2] = target: ERK2 (Homo sapiens, UniProt P28482); experiment: Kinase screen: MAPK2/ERK2 assay
ERK2, sequence (P28482 whole entry, species assumed): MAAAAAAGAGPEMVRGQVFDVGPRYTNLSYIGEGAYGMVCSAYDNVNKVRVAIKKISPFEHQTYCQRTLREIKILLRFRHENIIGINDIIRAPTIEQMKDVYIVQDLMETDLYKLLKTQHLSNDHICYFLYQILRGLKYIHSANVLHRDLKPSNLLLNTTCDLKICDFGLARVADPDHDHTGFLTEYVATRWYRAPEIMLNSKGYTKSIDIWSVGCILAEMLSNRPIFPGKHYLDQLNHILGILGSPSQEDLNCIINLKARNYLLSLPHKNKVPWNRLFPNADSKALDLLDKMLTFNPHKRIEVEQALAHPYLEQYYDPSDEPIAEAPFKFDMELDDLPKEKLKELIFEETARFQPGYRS
Method: as §1, §2
MAPK2/ERK2 assay: MAPK/ERK2 (5-20 mU diluted in 50 mM Tris pH 7.5, 0.1 mM EGTA, 0.1 mM Na3VO4, 0.1% b-mercaptoethanol, 1 mg/ml BSA) was assayed against MBP in a final volume of 25.5 μl in 25 mM Tris pH 7.5, 0.1 mM EGTA, 0.33 mg/ml MBP, 10 mM magnesium acetate and 0.05 mM [33P-g-ATP] (500-1000 cpm/pmole) and incubated for 30 min at room temperature. Assays were stopped by addition of 5 μl of 0.5 M (3%) orthophosphoric acid and then harvested onto P81 Unifilter plates with a wash buffer of 50 mM orthophosphoric acid.

[3] = target: p38α MAPK (Homo sapiens, UniProt Q16539); experiment: Kinase screen: SAPK 2a/p38 assay
p38α MAPK, sequence (Q16539 whole entry): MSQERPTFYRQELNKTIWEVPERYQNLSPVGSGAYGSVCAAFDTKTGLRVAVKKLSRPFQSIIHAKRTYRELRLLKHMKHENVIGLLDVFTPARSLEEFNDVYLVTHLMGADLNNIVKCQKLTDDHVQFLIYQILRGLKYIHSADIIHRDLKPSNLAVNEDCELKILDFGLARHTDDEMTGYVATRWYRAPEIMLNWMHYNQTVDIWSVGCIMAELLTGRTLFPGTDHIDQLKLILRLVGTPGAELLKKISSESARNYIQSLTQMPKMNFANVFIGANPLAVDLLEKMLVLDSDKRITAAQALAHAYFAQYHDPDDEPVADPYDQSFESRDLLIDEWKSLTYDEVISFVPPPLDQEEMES
Method: as §1, §2
SAPK 2a/p38 assay: SAPK 2a/p38 (5-20 mU diluted in 50 mM Tris pH 7.5, 0.1 mM EGTA, 0.1 mM Na3VO4, 0.1% b-mercaptoethanol, 1 mg/ml BSA) was assayed against MBP in a final volume of 25.5 μl containing 25 mM Tris pH 7.5, 0.1 mM EGTA, 0.33 mg/ml MBP, 10 mM magnesium acetate and 0.05 mM [33P-g-ATP] (50-1000 cpm/pmole) and incubated for 30 min at room temperature. Assays were stopped by addition of 5 μl of 0.5 M (3%) orthophosphoric acid and then harvested onto P81 Unifilter plates with a wash buffer of 50 mM orthophosphoric acid.

[4] = target: T1, IKKe (Homo sapiens, UniProt Q14164); experiment: Kinase screen: IKKe / IKKepsilon (DU14231) assay; details: 10 micromolar compound; for remaining activity at 10 µM: read-out: mean activity remaining (as a percentage of the original activity), IKKe
T1 construct: DU14231
T1 sequence (Q14164 1-716): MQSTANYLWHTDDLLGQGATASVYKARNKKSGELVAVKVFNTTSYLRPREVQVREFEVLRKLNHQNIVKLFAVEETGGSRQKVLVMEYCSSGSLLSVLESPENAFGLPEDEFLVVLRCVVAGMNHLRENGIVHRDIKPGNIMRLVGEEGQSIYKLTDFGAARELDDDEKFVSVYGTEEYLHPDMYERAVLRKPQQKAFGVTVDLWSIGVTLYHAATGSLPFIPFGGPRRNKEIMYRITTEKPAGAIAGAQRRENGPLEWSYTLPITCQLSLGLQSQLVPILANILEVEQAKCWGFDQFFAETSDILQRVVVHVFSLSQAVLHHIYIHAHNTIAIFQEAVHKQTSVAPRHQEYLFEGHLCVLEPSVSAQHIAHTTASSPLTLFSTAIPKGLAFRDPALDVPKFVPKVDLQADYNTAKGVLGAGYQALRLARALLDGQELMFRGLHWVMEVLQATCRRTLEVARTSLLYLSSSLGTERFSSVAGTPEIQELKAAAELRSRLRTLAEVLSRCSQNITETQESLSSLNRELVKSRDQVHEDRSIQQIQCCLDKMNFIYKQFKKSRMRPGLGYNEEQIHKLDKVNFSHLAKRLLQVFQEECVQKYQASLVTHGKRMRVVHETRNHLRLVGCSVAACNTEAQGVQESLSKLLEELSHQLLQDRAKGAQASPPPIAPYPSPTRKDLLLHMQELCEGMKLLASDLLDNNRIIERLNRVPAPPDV
Method: as §1, §2
(§3) IKKe assay: 5-20 mU of IKKe (diluted in 50 mM Tris (pH 7.5), 0.1 mM EGTA, 1 mg/ml BSA) was assayed against MBP in a final volume of 25.5 μl containing 50 mM Tris (pH 7.5), 0.1 mM EGTA, 0.33 mg/ml MBP, 10 mM magnesium acetate and 0.05 mM [33P-g-ATP] (500-1000 cpm/pmole) and incubated for 30 mins at room temperature. Assays were stopped by addition of 5 μl of 0.5M (3%) orthophosphoric acid. Assays were harvested onto P81 Unifilter plates using a wash buffer of 50 mM orthophosphoric acid.
as §3, with “IKKepsilon (DU14231)” for “IKKe”, “IKKepsilon (DU14231)(diluted” for “IKKe (diluted”

[5] = 10 micromolar compound, read-out: mean activity remaining (as a percentage of the original activity), RSK1
[6] = 10 micromolar compound, read-out: mean activity remaining (as a percentage of the original activity), ERK2
[7] = 10 micromolar compound, read-out: mean activity remaining (as a percentage of the original activity), p38a2 MAPK

RSK1, sequence (Q15418 whole entry, species assumed): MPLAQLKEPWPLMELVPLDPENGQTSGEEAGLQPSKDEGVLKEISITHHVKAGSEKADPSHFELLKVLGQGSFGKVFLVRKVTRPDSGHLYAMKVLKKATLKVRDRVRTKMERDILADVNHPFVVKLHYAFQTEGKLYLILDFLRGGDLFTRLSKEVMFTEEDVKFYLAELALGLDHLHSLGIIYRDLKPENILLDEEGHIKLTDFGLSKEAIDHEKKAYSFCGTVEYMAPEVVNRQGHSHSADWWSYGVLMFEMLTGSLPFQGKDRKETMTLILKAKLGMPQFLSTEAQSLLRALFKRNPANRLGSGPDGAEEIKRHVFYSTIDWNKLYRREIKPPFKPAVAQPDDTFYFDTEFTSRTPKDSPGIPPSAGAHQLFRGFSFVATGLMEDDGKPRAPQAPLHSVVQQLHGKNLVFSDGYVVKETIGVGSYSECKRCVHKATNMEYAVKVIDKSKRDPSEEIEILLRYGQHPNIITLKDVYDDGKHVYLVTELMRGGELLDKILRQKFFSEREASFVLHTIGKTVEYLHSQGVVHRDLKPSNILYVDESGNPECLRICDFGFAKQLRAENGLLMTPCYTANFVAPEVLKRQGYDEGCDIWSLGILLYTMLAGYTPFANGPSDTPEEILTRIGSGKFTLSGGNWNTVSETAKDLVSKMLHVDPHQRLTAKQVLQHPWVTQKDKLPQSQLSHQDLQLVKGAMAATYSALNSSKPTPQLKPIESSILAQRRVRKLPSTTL

CC(C)c1cnn2c(NCc3ccccc3)cc(NCCCCCCCN)nc12 [BS-181]
remaining activity at 10 µM ([1]; RSK1, 10 μM, read-out: Mean Remaining Enzyme Activity (%)): 67% | remaining activity at 10 µM ([2]; ERK2, 10 μM, read-out: Mean Remaining Enzyme Activity (%)): 86% | remaining activity at 10 µM ([3]; p38α MAPK, 10 μM, read-out: Mean Remaining Enzyme Activity (%)): 95%

C=C[C@H](CO)Nc1cc(NCc2ccccc2)n2ncc(C(C)C)c2n1 [ICEC0065]
remaining activity at 10 µM [1, 5]: 79% | remaining activity at 10 µM [2, 6]: 59% | remaining activity at 10 µM [4]: 101% | remaining activity at 10 µM [3, 7]: 94%

CC[C@H](CO)Nc1cc(NCc2ccccc2)n2ncc(C(C)C)c2n1 [ICEC0067]
remaining activity at 10 µM [1, 5]: 62% | remaining activity at 10 µM [2, 6]: 59% | remaining activity at 10 µM [4]: 103% | remaining activity at 10 µM [3, 7]: 99%

CC(C)c1cnn2c(NCc3ccccc3)cc(N[C@@H](CO)[C@H](O)CO)nc12 [ICEC0318, (3S)-3-(7-(Benzylamino)-3-isopropylpyrazolo[1,5-a]pyrimidin-5-ylamino)butane-1,2,4-triol]
remaining activity at 10 µM [1, 5]: 75% | remaining activity at 10 µM [2, 6]: 26% | remaining activity at 10 µM [4]: 94% | remaining activity at 10 µM [3, 7]: 98%

CC(C)c1cnn2c(NCc3ccccc3F)cc(NCCCCCN)nc12 [ICEC-0232]
mean activity remaining (as a percentage of the original activity), RSK1 ([1]; 10 micromolar compound): 24% | mean activity remaining (as a percentage of the original activity), ERK2 ([2]; 10 micromolar compound): 70% | mean activity remaining (as a percentage of the original activity), IKKe [4]: 92% | mean activity remaining (as a percentage of the original activity), p38a2 MAPK ([3]; 10 micromolar compound): 86%
